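Five compound concentrations were applied to cells in 96-well plates for 48 hours; endpoints were derived by simple linear interpolation of the resulting dose-response curve. Abbreviation: GI50, concentration required for 50% inhibition of growth.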 The source made the active and inactive calls. Rule as the data show it: active = GI50 up to about 1.1 µM and inactive = higher.
Assays:
Experiment in all cases: NCI-60 cell line screen, 48 h
[1] = test system: COLO 205
[2] = test system: DLD-1
[3] = test system: LXFL 529
[4] = test system: OVCAR-8
[5] = test system: SR
[6] = test system: DMS-114
[7] = test system: XF498
[8] = test system: KM-20L2
[9] = test system: SNB-78
[10] = test system: NCI-H226
[11] = test system: RPMI-8226
[12] = test system: DMS-273
[13] = test system: RXF 393
[14] = test system: OVCAR-5
[15] = test system: Malme-3M
[16] = test system: M19-MEL
[17] = test system: HOP-18
[18] = test system: 786-0
[19] = test system: MCF7
[20] = test system: NCI/ADR-RES

Compound | GI50 [1] | GI50 [2] | GI50 [3] | GI50 [4] | GI50 [5] | GI50 [6] | GI50 [7] | GI50 [8] | GI50 [9] | GI50 [10] | GI50 [11] | GI50 [12] | GI50 [13] | GI50 [14] | GI50 [15] | GI50 [16] | GI50 [17] | GI50 [18] | GI50 [19] | GI50 [20]
O=C(Nc1ccc(F)cc1)C(=O)C(C(=O)c1ccccc1F)C1OC(=O)c2ccccc21 (centres undefined) | 48.1 µM (inactive) | 76.4 µM (inactive) | 34.8 µM (inactive) | 43 µM (inactive) | 19.8 µM (inactive) | 45.5 µM (inactive) | 50.8 µM (inactive) | 86.3 µM (inactive) | 44.6 µM (inactive) | 21.4 µM (inactive) | 23.4 µM (inactive) | 43.3 µM (inactive) | > 100 µM (inactive) | > 100 µM (inactive) | – | – | – | – | – | –
CCOCc1cc(=O)c2c(O)cc3c(c2o1)CCC(C)(C)O3 | > 100 µM (inactive) | > 100 µM (inactive) | > 100 µM (inactive) | > 100 µM (inactive) | – | > 100 µM (inactive) | – | > 100 µM (inactive) | > 100 µM (inactive) | > 100 µM (inactive) | > 100 µM (inactive) | > 100 µM (inactive) | – | – | > 100 µM (inactive) | > 100 µM (inactive) | > 100 µM (inactive) | – | – | –
O=[S@@]1Nc2ccc(Br)cc2S1 | – | 6.08 µM (inactive) | 0.282 µM (active) | – | 7.14 µM (inactive) | – | > 100 µM (inactive) | 0.294 µM (active) | > 100 µM (inactive) | > 100 µM (inactive) | > 100 µM (inactive) | 1.73 µM (inactive) | – | – | 97.3 µM (inactive) | 3.98 µM (inactive) | – | > 100 µM (inactive) | – | –
CCOC(=O)C(Cc1c(-c2[nH]c3ccccc3c2CC(NC(=O)CNC(C)=O)C(=O)OCC)[nH]c2ccccc12)NC(=O)CNC(C)=O (centres undefined) | 18.6 µM (inactive) | – | – | – | 40.4 µM (inactive) | – | – | – | – | – | > 100 µM (inactive) | – | – | > 100 µM (inactive) | 20 µM (inactive) | – | – | – | – | –
Clc1ccc(N/N=C(\c2ccccc2)c2ccccn2)nc1 | < 0.01 µM (active) | – | – | < 0.01 µM (active) | 0.114 µM (active) | – | – | – | – | 0.0891 µM (active) | 0.147 µM (active) | – | 2.2 µM (inactive) | 0.895 µM (active) | < 0.01 µM (active) | – | – | 0.0367 µM (active) | < 0.01 µM (active) | < 0.0165 µM (active)
CC(=O)N(C(=O)CC(=O)N1N=C(C)C(/N=N/c2cccc([N+](=O)[O-])c2)C1=O)c1ccc(Cl)cc1 (centres undefined) | > 10 µM (inactive) | – | – | > 10 µM (inactive) | > 10 µM (inactive) | – | – | – | – | – | > 10 µM (inactive) | – | – | > 10 µM (inactive) | > 10 µM (inactive) | – | – | > 10 µM (inactive) | > 10 µM (inactive) | > 10 µM (inactive)
Cc1cc(C)c(C2=NO[C@@H]3[C@H]2C(=O)C=C2N(Cc4ccccc4)CCO[C@@]23O)c(C)c1 | > 100 µM (inactive) | > 100 µM (inactive) | – | > 100 µM (inactive) | – | – | > 100 µM (inactive) | > 100 µM (inactive) | > 100 µM (inactive) | > 100 µM (inactive) | > 100 µM (inactive) | > 100 µM (inactive) | > 100 µM (inactive) | > 100 µM (inactive) | > 100 µM (inactive) | > 100 µM (inactive) | > 100 µM (inactive) | – | > 100 µM (inactive) | > 100 µM (inactive)
CCOC(=O)c1nc2ccc(OC)cc2c2c1Cc1ccccc1-2 | > 100 µM (inactive) | > 100 µM (inactive) | > 100 µM (inactive) | > 100 µM (inactive) | > 100 µM (inactive) | 23.9 µM (inactive) | – | > 100 µM (inactive) | > 100 µM (inactive) | > 100 µM (inactive) | > 100 µM (inactive) | > 100 µM (inactive) | 16.2 µM (inactive) | > 100 µM (inactive) | > 100 µM (inactive) | > 100 µM (inactive) | – | – | – | –
CC1CC=CC(O)C1 (centres undefined) | > 100 µM (inactive) | > 100 µM (inactive) | – | > 100 µM (inactive) | – | > 100 µM (inactive) | > 100 µM (inactive) | > 100 µM (inactive) | > 100 µM (inactive) | > 100 µM (inactive) | > 100 µM (inactive) | > 100 µM (inactive) | > 100 µM (inactive) | > 100 µM (inactive) | > 100 µM (inactive) | > 100 µM (inactive) | > 100 µM (inactive) | – | > 100 µM (inactive) | > 100 µM (inactive)
C[C@H](C(=O)O)C(=O)NC(=O)N(Cc1ccccc1)N=O | > 100 µM (inactive) | > 100 µM (inactive) | > 100 µM (inactive) | > 100 µM (inactive) | – | > 100 µM (inactive) | > 100 µM (inactive) | > 100 µM (inactive) | > 100 µM (inactive) | – | > 100 µM (inactive) | > 100 µM (inactive) | – | > 100 µM (inactive) | > 100 µM (inactive) | > 100 µM (inactive) | 0.0525 µM (active) | > 100 µM (inactive) | – | –
COC(=O)/C=C\n1nc(Br)c(=O)[nH]c1=O | > 100 µM (inactive) | – | – | > 100 µM (inactive) | > 100 µM (inactive) | – | – | – | – | – | > 100 µM (inactive) | – | 83.9 µM (inactive) | > 100 µM (inactive) | > 100 µM (inactive) | – | – | – | > 100 µM (inactive) | > 100 µM (inactive)
O=S(O)c1cc(Cl)cc(Cl)c1O | – | > 100 µM (inactive) | > 100 µM (inactive) | – | – | 80.9 µM (inactive) | > 100 µM (inactive) | – | > 100 µM (inactive) | – | – | – | > 100 µM (inactive) | > 100 µM (inactive) | > 100 µM (inactive) | > 100 µM (inactive) | – | – | – | –
CN(C)CCNC(=O)c1ccc(Cl)c2ccc(-c3ccccc3)nc12 | 1.61 µM (inactive) | 2.92 µM (inactive) | – | 2.57 µM (inactive) | – | – | 3.16 µM (inactive) | 2.62 µM (inactive) | 6.32 µM (inactive) | 2.32 µM (inactive) | 2.51 µM (inactive) | 3 µM (inactive) | 5.38 µM (inactive) | 3.49 µM (inactive) | 3.52 µM (inactive) | 3.69 µM (inactive) | 3.26 µM (inactive) | – | 3.31 µM (inactive) | 2.42 µM (inactive)
O=c1[nH]cnc2sc(=S)c3c(c12)CCC3 | 14.4 µM (inactive) | – | – | 38.4 µM (inactive) | 12.1 µM (inactive) | – | – | – | – | 20.8 µM (inactive) | 18 µM (inactive) | – | 21.9 µM (inactive) | 47.8 µM (inactive) | 37.2 µM (inactive) | – | – | 15.5 µM (inactive) | > 100 µM (inactive) | 36.9 µM (inactive)
O=S(O)c1cc(Cl)cc(Cl)c1OCc1ccccc1 | – | > 100 µM (inactive) | > 100 µM (inactive) | – | > 100 µM (inactive) | > 100 µM (inactive) | > 100 µM (inactive) | – | > 100 µM (inactive) | – | – | – | > 100 µM (inactive) | > 100 µM (inactive) | > 100 µM (inactive) | > 100 µM (inactive) | – | – | – | –
OCC1C2C=CC(O2)[C@H]1CO (some centres undefined) | > 100 µM (inactive) | > 100 µM (inactive) | > 100 µM (inactive) | > 100 µM (inactive) | > 100 µM (inactive) | 92.7 µM (inactive) | – | > 100 µM (inactive) | > 100 µM (inactive) | > 100 µM (inactive) | > 100 µM (inactive) | > 100 µM (inactive) | 42.4 µM (inactive) | > 100 µM (inactive) | > 100 µM (inactive) | > 100 µM (inactive) | > 100 µM (inactive) | > 100 µM (inactive) | – | –

From ChEMBL document CHEMBL1201862, “PubChem BioAssay data set” (2004)
